Consider six compounds from patent US10322161B2, “EPHA4 cyclic peptide antagonists for neuroprotection and neural repair” (Sanford Burnham Prebys Medical Discovery Institute, priority 2014, dated 2019).

Entries after “also recorded” stand apart in the source; their conditions may differ. Ends that are not written are not given here.

Series [1] in a line: Stability of antagonistic activity in plasma.
Method: (§1) Aliquots were collected at different time points and used in ELISA measuring inhibition of EphA4 AP-ephrin-A5 Fc binding. For ELISA, ephrin-A5 Fc was immobilized at 1 μg/mL for 1 hour at room temperature in protein A-coated 96-well plates as described above. […] The amount of bound AP fusion protein was quantified by measuring the absorbance at 280 nm. The optical density obtained from wells coated with Fc and incubated with EphA4 AP and plasma or serum was subtracted as the background.
Series [2] concerns the target T1, EphA4 (Mus musculus, UniProt Q03137).
T1 construct: mouse EphA4 ectodomain fused to Fc; purchased R&D Systems
The series can be described thus: ELISA, inhibition of ephrin-A5 AP binding to immobilized EphA4 Fc. The note with it: C-terminally amidated peptides. On the technique in general: An ELISA detects its analyte on a solid surface through an enzyme-linked reagent.

In series [3] the test system is HT22 mouse hippocampal neurons. The series can be described thus: MTT cytotoxicity assay. The conditions noted are these: HT22 cells, 24 hours, 30 μM. Type of series: cell-based. As for the experimental part: HT22 mouse hippocampal neurons were grown in DMEM supplemented with 10% FBS, 1 mM sodium pyruvate and antibiotics. […] The cells were then incubated for 2 hours in 5 mg/mL MTT (Sigma-Aldrich) in PBS at 37° C. in a CO2 incubator. The resulting formazan crystals were solubilized by addition of 100% DMSO and OD570 was measured.
(Tetrazolium dyes change colour on reduction, which living cells bring about.)

A short description of series [4]: in vitro. The note with it: mouse, plasma, Half-life (t1/2) Plasma.
Method: as §1
Series [5] is described as follows: in vitro. The conditions noted are these: rat, Half-life (t1/2) CSF.
Method: as §1
Series [6] is described as follows: Stability of antagonistic activity in cerebrospinal fluid (CSF). The conditions noted are these: rat, depending on the conditions, units inside the value.
Method: as §1
The subject of series [7] is other Eph receptors (EphA2, EphA3, EphA5, EphA6, EphA7, EphA8, EphB1, EphB2, EphB3, EphB4, EphB6). The series can be described thus: Eph receptor selectivity ELISA (ephrin-A5 AP / ephrin-B2 AP binding to Eph receptor Fc). The conditions noted are these: concentration about 100-fold higher than the IC50 value for EphA4.
The conditions of series [8]: mouse, plasma, Half-life (t1/2) Plasma.
Method: as §1
The target in series [9] is EphA4 (Homo sapiens, UniProt P54764). The note with it: background statement; cited from earlier work.
Sequence of EphA4 (Homo sapiens, UniProt P54764) (P54764 20-986, species assumed): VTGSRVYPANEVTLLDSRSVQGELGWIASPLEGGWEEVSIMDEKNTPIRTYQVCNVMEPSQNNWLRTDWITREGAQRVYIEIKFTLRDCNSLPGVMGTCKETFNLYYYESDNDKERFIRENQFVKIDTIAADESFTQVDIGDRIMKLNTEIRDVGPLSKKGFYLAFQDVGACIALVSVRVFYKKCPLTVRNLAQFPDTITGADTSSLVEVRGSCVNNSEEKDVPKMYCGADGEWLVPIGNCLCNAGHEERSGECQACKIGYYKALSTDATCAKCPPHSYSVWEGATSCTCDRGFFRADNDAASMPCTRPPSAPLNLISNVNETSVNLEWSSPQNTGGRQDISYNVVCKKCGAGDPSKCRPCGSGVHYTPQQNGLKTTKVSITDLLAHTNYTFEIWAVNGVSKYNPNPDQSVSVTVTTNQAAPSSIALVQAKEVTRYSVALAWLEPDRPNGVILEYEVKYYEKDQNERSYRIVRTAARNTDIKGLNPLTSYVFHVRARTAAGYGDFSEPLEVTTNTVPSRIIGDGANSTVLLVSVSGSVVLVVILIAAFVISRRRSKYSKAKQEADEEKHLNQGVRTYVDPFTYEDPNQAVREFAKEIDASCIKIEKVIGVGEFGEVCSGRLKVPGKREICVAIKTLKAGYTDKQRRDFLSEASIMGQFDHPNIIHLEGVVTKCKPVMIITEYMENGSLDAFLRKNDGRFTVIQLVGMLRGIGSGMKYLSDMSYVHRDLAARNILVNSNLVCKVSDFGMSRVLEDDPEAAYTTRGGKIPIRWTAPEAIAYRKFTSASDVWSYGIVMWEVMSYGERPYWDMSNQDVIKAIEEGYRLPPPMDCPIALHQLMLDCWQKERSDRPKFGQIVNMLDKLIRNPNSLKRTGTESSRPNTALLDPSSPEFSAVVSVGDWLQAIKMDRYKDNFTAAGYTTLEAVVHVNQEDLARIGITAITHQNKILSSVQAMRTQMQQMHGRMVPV

T1 sequence (Q03137 20-547 limits assumed): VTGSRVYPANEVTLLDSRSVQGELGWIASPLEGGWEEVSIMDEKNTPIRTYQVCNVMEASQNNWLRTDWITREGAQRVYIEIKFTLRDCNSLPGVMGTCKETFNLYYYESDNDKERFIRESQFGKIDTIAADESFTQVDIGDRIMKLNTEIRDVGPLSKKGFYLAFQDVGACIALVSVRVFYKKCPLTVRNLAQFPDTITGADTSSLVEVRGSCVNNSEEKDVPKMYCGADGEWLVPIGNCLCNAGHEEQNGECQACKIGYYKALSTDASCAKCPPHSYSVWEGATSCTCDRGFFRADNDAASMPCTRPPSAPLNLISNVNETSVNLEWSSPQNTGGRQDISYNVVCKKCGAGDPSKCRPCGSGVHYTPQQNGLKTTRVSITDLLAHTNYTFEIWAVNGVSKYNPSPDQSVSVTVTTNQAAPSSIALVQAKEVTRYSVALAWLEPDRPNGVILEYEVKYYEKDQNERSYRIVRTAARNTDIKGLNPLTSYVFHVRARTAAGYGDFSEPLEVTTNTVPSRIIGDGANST

As for `CC(C)[C@@H]1NC(=O)[C@@H](NC(=O)[C@H](Cc2ccc(O)cc2)NC(=O)[C@@H]2CCCN2C(=O)[C@H](C)N)CSSC[C@@H](C(=O)O)NC(=O)[C@H](CO)NC(=O)[C@H](Cc2c[nH]c3ccccc23)NC(=O)[C@H](CO)NC(=O)CNC(=O)[C@H](CCCNC(=N)N)NC(=O)[C@H](Cc2ccc(O)cc2)NC1=O` [APY, reference compound], the half-life (in general, how long it takes for the measured level to halve) at 200 μM in [1] (mouse, plasma, Half-life (t1/2) Plasma, mouse plasma, 37° C., loss of antagonistic activity) was 0.267 h.
On to `CC(C)[C@@H]1NC(=O)[C@@H](NC(=O)[C@H](Cc2ccc(O)cc2)NC(=O)[C@@H]2CCCN2C(=O)[C@H](C)N)CSSC[C@@H](C(N)=O)NC(=O)[C@H](CO)NC(=O)[C@H](Cc2c[nH]c3ccccc23)NC(=O)[C@H](CO)NC(=O)[C@H](C)NC(=O)[C@H](CCCNC(=N)N)NC(=O)[C@H](Cc2ccc(O)cc2)NC1=O` [APY-Ala8.am], for which the “loss in potency on replacement of Gly8” value at EphA4 [2] (relative to APY.am) is “about 30 fold”.
As to `CC(C)[C@@H]1NC(=O)[C@@H](NC(=O)[C@H](Cc2ccc(O)cc2)NC(=O)[C@@H]2CCCN2C(=O)[C@H](C)N)CSSC[C@@H](C(N)=O)NC(=O)[C@H](CO)NC(=O)[C@H](Cc2c[nH]c3ccccc23)NC(=O)[C@H](CO)NC(=O)[C@@H](C)NC(=O)[C@H](CCCNC(=N)N)NC(=O)[C@H](Cc2ccc(O)cc2)NC1=O` [APY-DAla8.am], on EphA4 [2], the “effect of Gly8 replacement on potency” value is listed as “did not substantially affect potency”.
As to `CC(C)[C@@H]1NC(=O)[C@@H](NC(=O)[C@H](Cc2ccc(O)cc2)NC(=O)[C@@H]2CCCN2C(=O)[C@H](C)N)CSSC[C@@H](C(N)=O)NC(=O)[C@H](CO)NC(=O)[C@H](Cc2c[nH]c3ccccc23)NC(=O)[C@H](CO)NC(=O)CCNC(=O)[C@H](CCCNC(=N)N)NC(=O)[C@H](Cc2ccc(O)cc2)NC1=O` [APY-βAla8.am, APYCVYRβASWSC-am], the “cytotoxicity (MTT)” value in series [3] is “did not reveal significant cytotoxicity; also recorded: does not have detectable cytotoxic effects”. For the same compound, the half-life at 200 μM is approximately 2 h in the series “in vitro [4]”, 0.5 to 3 h in “in vitro [5]” and 0.5 to 3 h in series [6]. Moreover, the increase in stability in series [1] (relative to KYL and APY) is 2-8 fold. Besides, the “inhibition of other Eph receptors” value in series [7] is “does not inhibit other Eph receptors”.
For the compound `CC(C)[C@@H]1NC(=O)[C@@H](NC(=O)[C@H](Cc2ccc(O)cc2)NC(=O)[C@@H]2CCCN2C(=O)[C@@H](C)N)CSSC[C@@H](C(N)=O)NC(=O)[C@H](CO)NC(=O)[C@H](Cc2c[nH]c3ccccc23)NC(=O)[C@H](CO)NC(=O)CCNC(=O)[C@H](CCCNC(=N)N)NC(=O)[C@H](Cc2ccc(O)cc2)NC1=O` [DAla1-PY-βAla8.am, D-APYCVYRβASWSC-am], the half-life at 200 μM in “in vitro [4]” and in the series “in vitro [5]” was approximately 72 h throughout.
For the compound KYLPYWPVLSSL [KYL], in series [8], the half-life amounted to 0.183 h. In addition, on EphA4 [9], the Kd – broadly, the constant that tells how readily two partners part at equilibrium – was 800 to 1000 nM.
